According to US10273238B2, “Indazolones as modulators of TNF signaling” (AbbVie Inc., priority 2015, dated 2019):

Biological target: TNFα (Homo sapiens, UniProt P01375)
Experiment: TNFα FP Competitive Binding Assay
Settings: 20 nM TNFα trimer, 1 nM OregonGreen488 probe, read-out: TNF IC50
Description: TNFα FP Competitive Binding Assay
Prepare 1× Assay Buffer (Water with 47 mil HEPES, 47 mM NaCl, 0.9 mM EDTA, 0.0071% Triton X-100) by adding 25 mL of 1 M HEPES, 5 mL of 5 M NaCl, 1 mL of 0.5 M EDTA, and 375 μL of a 10% Triton X-100 stock to a fresh 500 mL bottle of water.
Prepare fresh Assay Mixture containing 20 nM TNFα trimer (60 nM protein) and 1 nM 2′,7′-difluoro-3′,6′-dihydroxy-N-(2-(2-(2-((4-(isoquinolin-8-yl)-3-(4-(isoquinolin-8-yl)phenethoxy)benzyl)oxy)ethoxy)ethoxy)ethyl)-3-oxo-3H- spiro[isobenzofuran-1,9′-xanthene]-5-carboxamide probe in 1× Assay Buffer.
Top concentration of compounds, 10 mM in DMSO, dispensed in rows A-O in columns 1 and 13. Compounds are serially diluted 1:3 with DMSO in columns 2-12 or 14-24 using a 16-channel Matrix pipettor. Plates stored at −20° C.
Top concentration, 5 mM in DMSO, of compounds placed in rows A-O in columns 1 and 13.
Compounds are serially diluted 1:3 with DMSO in columns 2-12 or 14-24. Compound solutions are dispensed into replicate assay plates at 410 nL per well. Plates stored at 4° C.
TNFα FP Competitive Binding Assay Protocol • 1. Compound plates warmed to rt. • 2. Fresh Assay Mixture is prepared. • 3. Assay Mixture (20 μL) is dispensed each well of 384 assay plates using a Thermo Multidrop Combi or 16-channel Matrix pipettor. If Manual 12-point 1:3 Dilution Plates are to be tested, Assay Mix is dispensed into empty plates. Discovery Preps 12-point 1:3 Dilution Plates already contain 410 nL compound solution in DMSO. • 4. For Manual 12-point 1:3 Dilution Plates, 0.7 μL is manually transferred using a 16-channel Matrix pipettor to replicate assay plates containing 20 μL Assay Mixture for a final top compound concentration of […] (3.4% DMSO). • 5. For Discovery Preps 12-point 1:3 Dilution Plates, 20 μL Assay Mixture added the 410 nL compound solution already in the plates yields a final top compound concentration of 100 μM (2.0% DMSO). • 6. Background subtraction controls are wells P1-P8 containing only Assay Buffer. The low % inhibition controls are wells P9-P16 containing only Assay Mix. The high % inhibition are wells P17-P24 containing only 1 nM 2′,7′-difluoro-3′,6′-dihydroxy-N-(2-(2-(2-((4-(isoquinolin-8-yl)-3-(4-(isoquinolin-8-yl)phenethoxy)benzyl)oxy)ethoxy)ethoxy)ethyl)-3-oxo-3H-spiro[isobenzofuran-1,9′-xanthene]-5-carboxamide probe in 1× Assay Buffer. • 7. Plates are incubated at rt for 18-24 h in […] (CO2 is off). • 8. Prior to reading the assay, the plates are placed in a dark cabinet to equilibrate at rt for one hour. • 9. Background-subtracted fluorescence polarization (mP) is measured using a PerkinElmer Envision plate reader. • 10. Raw data is entered into Assay Explorer and dose-response curves are generated using a variable slope curve.

Sequence of TNFα (P01375 77-233 limits assumed): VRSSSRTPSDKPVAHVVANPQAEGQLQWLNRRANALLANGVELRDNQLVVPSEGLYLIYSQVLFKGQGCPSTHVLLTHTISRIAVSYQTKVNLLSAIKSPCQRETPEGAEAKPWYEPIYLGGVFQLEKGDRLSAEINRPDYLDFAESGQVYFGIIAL

Row | IC50 [nM] | Structure (SMILES)
1 | 1000 to 10000 | Cc1cccc(C2CCn3c(=O)c4ccc(-c5cnc(N6CCOCC6)nc5)cc4n32)c1C#N (stereo not shown) [Example 8.1, 2-methyl-6-(6-(2-morpholinopyrimidin-5-yl)-9-oxo-1,2,3,9-tetrahydropyrazolo[1,2-a]indazol-3-yl)benzonitrile]
2 | > 10000 | COC[C@H]1CCCN1c1ncc(-c2ccc3c(c2)[C@H]2[C@@H](c4ccccc4OC(F)F)CCN2C3=O)cn1 (single isomer, unassigned) [Example 10.4]
3 | < 1000 | Cc1nc(C(C)(C)O)ncc1-c1ccc2c(=O)n3n(c2c1)[C@@H](c1ccccc1OC(F)F)CC3 [Example 6.6]
4 | < 1000 | O=c1c2ccc(-c3cnc(N4CCC5(CC4)CC(O)C5)nc3)cc2n2n1CC[C@@H]2c1ccccc1OC(F)F (single isomer, unassigned) [Example 4.7]
5 | 1000 to 10000 | CC(C)(O)c1ncc(-c2ccc3c(=O)n4n(c3c2)[C@H](c2ccccc2OC(F)F)CC4)cn1 (single isomer, unassigned) [Example 4.1]
6 | 1000 to 10000 | O=c1c2ccc(-c3cnc(N[C@@H]4CCOC4)nc3)cc2n2n1CC[C@@H]2c1ccccc1OC(F)F (single isomer, unassigned) [Example 1.6]
7 | < 1000 | O=C1NC[C@H]2CN(c3ncc(-c4ccc5c(=O)n6n(c5c4)[C@H](c4ccccc4OC(F)F)CC6)cn3)CCN12 (single isomer, unassigned) [Example 5.1]
8 | < 1000 | O=c1c2ccc(-c3cnc(N4CCOCC4)nc3)cc2n2n1CC[C@@H]2c1ccccc1OC(F)F (single isomer, unassigned) [Example 1.1]
9 | < 1000 | O=c1c2ccc(-c3cnc(N4CCOCC4)nc3)cc2n2n1CC[C@H]2c1ccccc1OC(F)F (single isomer, unassigned) [Example 1.2]
10 | < 1000 | O=C1NC[C@@H]2CN(c3ncc(-c4ccc5c(c4)[C@H]4[C@@H](c6ccccc6OC(F)F)CCN4C5=O)cn3)CCN12 (single isomer, unassigned) [Example 11.1]
11 | < 1000 | O=C1NC[C@H]2CN(c3ncc(-c4ccc5c(c4)[C@H]4[C@@H](c6ccccc6OC(F)F)CCN4C5=O)cn3)CCN12 (single isomer, unassigned) [Example 11.2]
12 | < 1000 | Cc1ccc(OC(F)F)c([C@@H]2CCn3c(=O)c4ccc(-c5cnc(N6CCN7C(=O)NC[C@H]7C6)nc5)cc4n32)c1 (single isomer, unassigned) [Example 14.1]
13 | 1000 to 10000 | COc1ccc(CO)cc1C1CCn2c(=O)c3ccc(-c4cnc(N5CCOCC5)nc4)cc3n21 (stereo not shown) [Example 19, 3-(5-(Hydroxymethyl)-2-methoxyphenyl)-6-(2-morpholinopyrimidin-5-yl)-2,3-dihydropyrazolo[1,2-a]indazol-9(1H)-one]
14 | < 1000 | O=c1c2ccc(-c3cnc(N4CCO[C@H](CO)C4)nc3)cc2n2n1CC[C@H]2c1ccccc1OC(F)F (single isomer, unassigned) [Example 2.1]
15 | < 1000 | O=C1NC[C@@H]2CN(c3ncc(-c4ccc5c(=O)n6n(c5c4)[C@H](c4ccccc4OC(F)F)CC6)cn3)CCN12 (single isomer, unassigned) [Example 5.2]
16 | < 1000 | O=c1c2ccc(-c3cnc(N4CCC5(CC4)CC(O)C5)nc3)cc2n2n1CC[C@H]2c1ccccc1OC(F)F (single isomer, unassigned) [Example 4.8]
